Calls of active or inactive are those of the source.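 How the source made its calls: active means cytotoxic compounds whose viability ratio versus DMSO control falls below 0.85 at 10 µM; inactive means the rest.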
System: U937 viability, trypan blue exclusion, 24 h
Test: viability loss in U937 leukemia cells – cell-based, trypan blue exclusion, cytotoxicity control for Cdc42 probe extension project, late-stage follow-up (AID 651732)
Conditions: at 30 µM (top of the series)

Q: Which viability ratio to DMSO does the source give for `COc1ccc(C2CC(c3ccccc3)=NN2c2ccc(S(N)(=O)=O)cc2)cc1` (stereo unspecified) here?
A: Its viability ratio to DMSO is 0.19 (inactive).

Reference: PubChem BioAssay AID651732 (NMMLSC, 2012)
